Zone of inhibition and inhibition data for 13 compounds are collected here from ChEMBL document CHEMBL3045239, “Synthesis and antimicrobial evaluation of novel benzo[b]thiophenes comprising -lactam nucleus” (2012).

In general, inhibition refers to the relative decrease from the control value, in per cent. Low readings indicate a response near the control, high ones a response far below the control.

Holding throughout (format): functional
Experiment [1] concerns Escherichia coli. The experiment in a line: Antimicrobial activity against Escherichia coli at 1 mg/ml after 24 hr by agar well diffusion method. To be noted: read-out: DIZ. (In agar diffusion tests the substance spreads into inoculated agar from a disc or well.)
For experiment [2], the system named is Bacillus subtilis. The experiment in a line: Antimicrobial activity against Bacillus subtilis at 1 mg/ml after 24 hr by agar well diffusion method. To be noted: read-out: DIZ.
Experiment [3] deals with Candida albicans. The experiment in a line: Antimicrobial activity against Candida albicans at 200 ug/ml after 7 days by agar plate method. To be noted: 168 h.
In experiment [4] the test system is Pseudomonas aeruginosa. The experiment in a line: Antimicrobial activity against Pseudomonas aeruginosa at 1 mg/ml after 24 hr by agar well diffusion method. To be noted: read-out: DIZ.
Experiment [5] has as its system Micrococcus luteus. Nature of the experiment: Antimicrobial activity against Micrococcus luteus at 1 mg/ml after 24 hr by agar well diffusion method. To be noted: read-out: DIZ.
Experiment [6] concerns Staphylococcus aureus. The experiment in a line: Antimicrobial activity against Staphylococcus aureus at 1 mg/ml after 24 hr by agar well diffusion method. To be noted: read-out: DIZ.
In experiment [7] the test system is Trichophyton longifusum. Nature of the experiment: Antimicrobial activity against Trichophyton longifusum at 200 ug/ml after 7 days by agar plate method. To be noted: 168 h.
The subject of experiment [8] is Fusarium solani. The experiment in a line: Antimicrobial activity against Fusarium solani at 200 ug/ml after 7 days by agar plate method. To be noted: 168 h.
Experiment [9] relates to Microsporum canis. The experiment in a line: Antimicrobial activity against Arthroderma otae at 200 ug/ml after 7 days by agar plate method. To be noted: 168 h.

For the compound `COc1cc([C@@H]2[C@H](Oc3ccc(Cl)cc3Cl)C(=O)N2c2sc3c(c2C#N)C=C(/C=C/c2c(C)nn(-c4ccccc4)c2Cl)CC3(C)C)cc(OC)c1OC`, the zone of inhibition at 1000 µg/mL in experiment [1] was 12.9 mm; in [2] it was 11.6 mm; in [4], 11.7 mm; in experiment [5], < 10 mm; in experiment [6], 10.6 mm. Also, the inhibition at 200 µg/mL in experiment [3] was 50%.
For the compound `Cc1nn(-c2ccccc2)c(Cl)c1/C=C/C1=Cc2c(sc(N3C(=O)[C@@H](Oc4ccc(Cl)cc4Cl)[C@H]3c3ccc(Cl)cc3)c2C#N)C(C)(C)C1` (relative stereo), the zone of inhibition at 1000 µg/mL in experiment [1] was 13.9 mm; in [2] it was 12.4 mm; in experiment [4], 11.2 mm; in [5] it was < 10 mm; in [6], 10.6 mm. This compound also came in with an inhibition at 200 µg/mL in experiment [7] of 35%.
Regarding `Cc1nn(-c2ccccc2)c(Cl)c1/C=C/C1=Cc2c(sc(N3C(=O)[C@@H](Oc4ccc(Cl)cc4Cl)[C@H]3c3ccc(Cl)c(Cl)c3)c2C#N)C(C)(C)C1` (relative stereo), the zone of inhibition at 1000 µg/mL in [1] is 12 mm; in experiment [2], 11.2 mm; in experiment [4] it was 10.8 mm; in [5] it was < 10 mm; in [6], < 10 mm.
`Cc1nn(-c2ccccc2)c(Cl)c1/C=C/C1=Cc2c(sc(N3C(=O)[C@@H](Oc4ccc(Cl)cc4Cl)[C@H]3c3ccc(N(C)C)cc3)c2C#N)C(C)(C)C1` (relative stereo): the zone of inhibition at 1000 µg/mL is 14.6 mm in [1]; < 10 mm in [2]; < 10 mm in experiment [4]; < 10 mm in experiment [5]; < 10 mm in experiment [6].
As for `Cc1nn(-c2ccccc2)c(Cl)c1/C=C/C1=Cc2c(sc(N3C(=O)[C@@H](Oc4ccc(Cl)cc4Cl)[C@H]3c3ccccc3O)c2C#N)C(C)(C)C1` (relative stereo), the zone of inhibition at 1000 µg/mL is 17.6 mm in experiment [1]; 18.9 mm in [2]; 11.6 mm in [4]; < 10 mm in experiment [5]; 12.3 mm in experiment [6]. For the same compound, the figures for the inhibition at 200 µg/mL in [3] and in experiment [7] were 91% and 89%, respectively.
On to `COc1ccc([C@@H]2[C@H](Oc3ccc(Cl)cc3Cl)C(=O)N2c2sc3c(c2C#N)C=C(/C=C/c2c(C)nn(-c4ccccc4)c2Cl)CC3(C)C)cc1` (relative stereo), for which the zone of inhibition at 1000 µg/mL is 15.6 mm in [1]; 12.5 mm in experiment [2]; 11.9 mm in experiment [4]; < 10 mm in experiment [5]; 11.3 mm in experiment [6]. In addition, the inhibition at 200 µg/mL in [3] came out at 30%; in experiment [8], 25%.
With `COc1ccc([C@@H]2[C@H](Oc3ccc(Cl)cc3Cl)C(=O)N2c2sc3c(c2C#N)C=C(/C=C/c2c(C)nn(-c4ccccc4)c2Cl)CC3(C)C)cc1O` (relative stereo), the zone of inhibition at 1000 µg/mL in [1] was 13.7 mm; in experiment [2] it was < 10 mm; in experiment [4] it was < 10 mm; in experiment [5], < 10 mm; in experiment [6] it was < 10 mm.
As to `Cc1nn(-c2ccccc2)c(Cl)c1/C=C/C1=Cc2c(sc(N3C(=O)[C@@H](Oc4ccc(Cl)cc4Cl)[C@H]3c3ccc([N+](=O)[O-])cc3)c2C#N)C(C)(C)C1` (relative stereo), the zone of inhibition at 1000 µg/mL in [1] is 14 mm; in experiment [2], 11.2 mm; in experiment [4] it was 12.1 mm; in experiment [5], < 10 mm; in experiment [6], < 10 mm.
For `Cc1nn(-c2ccccc2)c(Cl)c1/C=C/C1=Cc2c(sc(N3C(=O)[C@@H](Oc4ccc(Cl)cc4Cl)[C@H]3c3ccccc3)c2C#N)C(C)(C)C1` (relative stereo), the zone of inhibition at 1000 µg/mL in experiment [1] is 14.2 mm; in [2], 11.7 mm; in experiment [4], 11.7 mm; in experiment [5], < 10 mm; in experiment [6], < 10 mm. The inhibition at 200 µg/mL in experiment [9] is 50%; in [7] it was 40%.
For `Cc1nn(-c2ccccc2)c(Cl)c1/C=C/C1=Cc2c(sc(N3C(=O)[C@@H](Oc4ccc(Cl)cc4Cl)[C@H]3c3ccccc3Cl)c2C#N)C(C)(C)C1` (relative stereo), the zone of inhibition at 1000 µg/mL in [1] was determined as 17.8 mm; in experiment [2], 18.7 mm; in experiment [4], 10.6 mm; in experiment [5], 13.1 mm; in experiment [6] it was 11.3 mm. Besides, the inhibition at 200 µg/mL in experiment [3] was found to be 94%; in [8], 40%; in experiment [7], 92%.
Regarding `C=CC1=C(C(=O)O)N2C(=O)[C@@H](NC(=O)/C(=N\OCC(=O)O)c3csc(N)n3)[C@H]2SC1` [CEFIXIME], the zone of inhibition at 1000 µg/mL in [1] worked out at 30 mm; in experiment [2], 28.7 mm; in experiment [4], 17.8 mm; in experiment [5] it was 34.1 mm; in [6], 36.1 mm.
The like results for `O=C(N[C@H](CO)[C@H](O)c1ccc([N+](=O)[O-])cc1)C(Cl)Cl` [CHLORAMPHENICOL] were, in that order, 17 mm, 18.8 mm, 19.6 mm, 17.2 mm and 16.4 mm.
As for `Clc1ccc(COC(Cn2ccnc2)c2ccc(Cl)cc2Cl)c(Cl)c1` (stereo not given) [MICONAZOLE], the inhibition at 200 µg/mL in experiment [3] is 90%; in experiment [8], 90%; in [9] it was 90%; in experiment [7], 100%.
